Measurements: US7588894B2, “Use of ID4 for diagnosis and treatment of cancer” (John Wayne Cancern Institute, priority 2005, dated 2009)
Entries after “also recorded” stand apart in the source; their conditions may differ.

Assays:
Format in all cases: cell-based
[1] = system: ID4 promoter region in SW480; assay: Methylation-specific PCR of ID4 promoter region after 5Aza treatment, SW480; conditions: SW480, 5 ug/mL of 5Aza for 48 hours; untreated only methylated peaks
Method: (§1) Cell Lines. Three CRC cell lines SW480, DLD1, and LOVO (American Type Culture Collection, Manassas, Va.) were analyzed in this study. Genomic DNA was extracted from cells as described previously (33). Total RNA was extracted with TRI Reagent (Molecular Research Center, Inc., Cincinnati, Ohio) according to the manufacturer's protocol. […] Cells were seeded at 7×10^5/T-25 flask on day zero; the culture medium was changed on day two, and cells were then treated with 5Aza at final concentrations of 5 ug/mL for 48 hours (SW480 and DLD1) and 10 ug/mL for 72 hours (DLD1). After treatment, cells were harvested for DNA and RNA as described above. Sodium bisulfite modification was applied on extracted genomic DNA of tissue specimens or cell lines for methylation-specific PCR or bisulfite sequencing as described previously (33). Detection of Hypermethylation. Methylation status of ID4 promoter region was analyzed by methylation-specific PCR and bisulfite sequencing. […] PCR products were detected and analyzed by CEQ 8000XL capillary array electrophoresis system (Beckman Coulter, Inc., Fullerton, Calif.) with CEQ 8000 software version 6.0 (Beckman Coulter) as described previously (35). Methylation status was determined by the ratio of the signal intensities of methylated and unmethylated PCR products; samples with methylated to unmethylated ratio larger than 0.2 were determined as methylated.

[2] = system: ID4 promoter region in DLD1; assay: Methylation-specific PCR of ID4 promoter region after 5Aza treatment, DLD1; conditions: DLD1, 10 ug/mL of 5Aza for 72 hours; untreated only methylated peaks
Method: as §1

[3] = system: CRC cell lines; assay: mRNA expression in CRC cell lines after 5Aza treatment (summary statements)
Method: Cell Lines. Three CRC cell lines SW480, DLD1, and LOVO (American Type Culture Collection, Manassas, Va.) were analyzed in this study. Genomic DNA was extracted from cells as described previously (33). Total RNA was extracted with TRI Reagent (Molecular Research Center, Inc., Cincinnati, Ohio) according to the manufacturer's protocol. For ID4 expression restoration study, SW480 and DLD1 were treated with DNA demethylation agent 5-aza-cytidine (5Aza), a known inhibitor of methylation, as described previously (33-35). […]
Analysis of mRNA Expression Level. […] Quantitative real-time reverse transcription-PCR assay was done on the iCycler iQ Real-Time thermocycler detection system (Bio-Rad Laboratories, Hercules, Calif.; 39). For each PCR, the reaction mixture consisted of cDNA template synthesized by reverse-transcription from 250 ng of total RNA, 0.2 mmol/L of forward primer (5′-CGCTCACTGCGCTCAACAC-3′), 0.2 mmol/L of reverse primer (5′-TCAGGCGGCCGCACACCT-3′), and 0.6 mmol/L of fluorescence resonance energy transfer probe (5′-FAM-[…]-BHQ-3′). […] Absolute copy numbers were determined by a standard curve with serial dilutions (10^8 to 10^1 copies) of DNA containing ID4 or GAPDH cDNA sequence. […] The expression level of the housekeeping gene GAPDH was measured as an internal reference with a standard curve to determine the integrity of template RNA for all of the specimens. […]

[4] = system: ID4 mRNA expression in DLD1; assay: ID4 mRNA expression by quantitative real-time reverse transcription-PCR after 5Aza treatment, DLD1
Method: (§2) Cell Lines. Three CRC cell lines SW480, DLD1, and LOVO (American Type Culture Collection, Manassas, Va.) were analyzed in this study. Genomic DNA was extracted from cells as described previously (33). Total RNA was extracted with TRI Reagent (Molecular Research Center, Inc., Cincinnati, Ohio) according to the manufacturer's protocol. For ID4 expression restoration study, SW480 and DLD1 were treated with DNA demethylation agent 5-aza-cytidine (5Aza), a known inhibitor of methylation, as described previously (33-35). Cells were seeded at 7×10^5/T-25 flask on day zero; the culture medium was changed on day two, and cells were then treated with 5Aza at final concentrations of 5 ug/mL for 48 hours (SW480 and DLD1) and 10 ug/mL for 72 hours (DLD1). After treatment, cells were harvested for DNA and RNA as described above.
Analysis of mRNA Expression Level. Reverse-transcriptase reactions were done on 1.0 ug of extracted total RNA with Moloney murine leukemia virus reverse-transcriptase (Promega, Madison, Wis.) with oligodeoxythymidylic acid primers, as described previously (39). Quantitative real-time reverse transcription-PCR assay was done on the iCycler iQ Real-Time thermocycler detection system (Bio-Rad Laboratories, Hercules, Calif.; 39). For each PCR, the reaction mixture consisted of cDNA template synthesized by reverse-transcription from 250 ng of total RNA, 0.2 mmol/L of forward primer (5′-CGCTCACTGCGCTCAACAC-3′), 0.2 mmol/L of reverse primer (5′-TCAGGCGGCCGCACACCT-3′), and 0.6 mmol/L of fluorescence resonance energy transfer probe (5′-FAM-[…]-BHQ-3′). PCR amplification was done in a 20-ul reaction volume for 45 cycles of 30 seconds at 94° C., 30 seconds at 58° C., and 30 seconds at 72° C. with 3 mmol/L of Mg^2+. Absolute copy numbers were determined by a standard curve with serial dilutions (10^8 to 10^1 copies) of DNA containing ID4 or GAPDH cDNA sequence. Analysis without templates was done as a negative control in each study. PCR products were electrophoresed on 2% agarose gels to confirm correct product size and absence of nonspecific bands. The expression level of the housekeeping gene GAPDH was measured as an internal reference with a standard curve to determine the integrity of template RNA for all of the specimens. The ratio of ID4 and GAPDH mRNA level was calculated as follows: (absolute copy number of ID4)/(absolute copy number of GAPDH) as described previously (39).

[5] = system: ID4 promoter region in SW480; assay: Bisulfite sequencing of ID4 promoter region after 5Aza treatment, SW480; conditions: SW480, 5 ug/mL of 5Aza for 48 hours; nontreated cells all CpG sites methylated
Method: as §2
(§3) Sodium bisulfite modification was applied on extracted genomic DNA of tissue specimens or cell lines for methylation-specific PCR or bisulfite sequencing as described previously (33).
(§4) For bisulfite sequencing, the primer set was as follows: forward, 5′-[…]-3′; and reverse, 5′-[…]-3′, with Y═C or T, R=G or A, as described previously (32). […] Sequences were read by CEQ 8000XL capillary array electrophoresis system (Beckman Coulter) with CEQ 8000 software version 6.0 (Beckman Coulter) as described previously (37).

[6] = system: ID4 mRNA expression in SW480; assay: ID4 mRNA expression by quantitative real-time reverse transcription-PCR after 5Aza treatment, SW480
Method: as §2
Analysis of mRNA Expression Level. Reverse-transcriptase reactions were done on 1.0 ug of extracted total RNA with Moloney murine leukemia virus reverse-transcriptase (Promega, Madison, Wis.) with oligodeoxythymidylic acid primers, as described previously (39). Quantitative real-time reverse transcription-PCR assay was done on the iCycler iQ Real-Time thermocycler detection system (Bio-Rad Laboratories, Hercules, Calif.; 39). For each PCR, the reaction mixture consisted of cDNA template synthesized by reverse-transcription from 250 ng of total RNA, 0.2 mmol/L of forward primer (5′-CGCTCACTGCGCTCAACAC-3′), 0.2 mmol/L of reverse primer (5′-TCAGGCGGCCGCACACCT-3′), and 0.6 mmol/L of fluorescence resonance energy transfer probe (5′-FAM-[…]-BHQ-3′). […] Absolute copy numbers were determined by a standard curve with serial dilutions (10^8 to 10^1 copies) of DNA containing ID4 or GAPDH cDNA sequence. […] The expression level of the housekeeping gene GAPDH was measured as an internal reference with a standard curve to determine the integrity of template RNA for all of the specimens. The ratio of ID4 and GAPDH mRNA level was calculated as follows: (absolute copy number of ID4)/(absolute copy number of GAPDH) as described previously (39).

[7] = system: ID4 promoter region in DLD1; assay: Bisulfite sequencing of ID4 promoter region after 5Aza treatment, DLD1; conditions: DLD1, 10 ug/mL of 5Aza for 72 hours
Method: as §2, §3, §4

Q: Which results are given for `Nc1ncn([C@@H]2O[C@H](CO)[C@@H](O)[C@H]2O)c(=O)n1` [5Aza, 5-aza-cytidine]?
A: Methylation-specific PCR result of ID4 promoter [1]: Unmethylated peaks appeared; also recorded: showed an unmethylation-specific peak; Methylation-specific PCR result of ID4 promoter [2]: Unmethylated peaks appeared; also recorded: produced an unmethylation-specific peak; ID4 mRNA expression in hypermethylated CRC cell lines ([3]; 5-aza-cytidine treatment): could be restored; GAPDH mRNA ([3]; after 5Aza treatment, CRC cell lines): decreased; ID4 expression restoration ([4]; DLD1, 5 ug/mL of 5Aza for 48 hours): did not overtly restore ID4 expression; ID4 copy number ([4]; DLD1, 10 ug/mL of 5Aza for 72 hours, untreated undetectable (0)): 4.8×10^2 copies/250 ng of total RNA; ID4 expression ratio (ID4 copy number)/(GAPDH copy number) ([4]; DLD1, 5Aza-treated, untreated 0): 4.8 × 10^−3; GAPDH copy number ([4]; DLD1, 5Aza-treated, untreated 5.6 × 10^5): 9.9 × 10^4 copies/250 ng of total RNA; Methylation status of CpG sites by bisulfite sequencing [5]: most CpG sites were changed to unmethylated form; ID4 copy number ([6]; SW480, 5 ug/mL of 5Aza for 48 hours, untreated undetectable (0)): 4.7×10^2 copies/250 ng of total RNA; ID4 expression ratio (ID4 copy number)/(GAPDH copy number) ([6]; SW480, 5Aza-treated, untreated 0): 2.8 × 10^−3; GAPDH copy number ([6]; SW480, 5Aza-treated, untreated 4.6 × 10^6): 1.7 × 10^5 copies/250 ng of total RNA; Methylation status of CpG sites by bisulfite sequencing [7]: CpG sites partially lost their methylation
